In the NIST ThermoML archive (doi:10.1016/j.fluid.2018.10.024):

Experiments:
[1] = xn = mol fraction of the nth substance listed; conditions: 101 kPa, Liquid; for viscosity: Capillary tube (Ostwald / Ubbelohde) method; for mass density: Vibrating tube method
[2] = refractive index (Na D-line) (dimensionless); xn = mol fraction of the nth substance listed; conditions: 101 kPa, Liquid, Standard Abbe refractometry

CC(C)=O [acetone] + CO
Conditions | mass density, [1] [kg/m3] | refractive index, [2] | viscosity, [1] [mPa·s]
298.15 K, x2 = 0 | 784.41 | 1.3558 | 0.3034
298.15 K, x2 = 0.1036 | 786.21 | 1.3539 | 0.3003
298.15 K, x2 = 0.2043 | 787.49 | 1.3521 | 0.3006
298.15 K, x2 = 0.302 | 788.57 | 1.3502 | 0.3059
298.15 K, x2 = 0.4013 | 789.53 | 1.3483 | 0.3143
298.15 K, x2 = 0.5004 | 790.3 | 1.3458 | 0.3299
298.15 K, x2 = 0.6006 | 790.81 | 1.3426 | 0.3533
298.15 K, x2 = 0.6969 | 790.98 | 1.3389 | 0.3852
298.15 K, x2 = 0.802 | 790.73 | 1.3352 | 0.4316
298.15 K, x2 = 0.8965 | 789.83 | 1.3315 | 0.4833
303.15 K, x2 = 0 | 778.66 | 1.3534 | 0.2966
303.15 K, x2 = 0.1036 | 780.47 | 1.3513 | 0.295
303.15 K, x2 = 0.2043 | 781.81 | 1.3497 | 0.2939
303.15 K, x2 = 0.302 | 782.95 | 1.3482 | 0.2987
303.15 K, x2 = 0.4013 | 784 | 1.3464 | 0.3073
303.15 K, x2 = 0.5004 | 784.89 | 1.3439 | 0.3188
303.15 K, x2 = 0.6006 | 785.55 | 1.3407 | 0.34
303.15 K, x2 = 0.6969 | 785.85 | 1.3369 | 0.3663
303.15 K, x2 = 0.802 | 785.67 | 1.3328 | 0.4051
303.15 K, x2 = 0.8965 | 784.85 | 1.3291 | 0.4472
308.15 K, x2 = 0 | 773.08 | 1.3509 | 0.2831
308.15 K, x2 = 0.1036 | 774.93 | 1.3493 | 0.2807
308.15 K, x2 = 0.2043 | 776.27 | 1.3481 | 0.2803
308.15 K, x2 = 0.302 | 777.4 | 1.3465 | 0.2844
308.15 K, x2 = 0.4013 | 778.45 | 1.3444 | 0.2945
308.15 K, x2 = 0.5004 | 779.36 | 1.3419 | 0.3103
308.15 K, x2 = 0.6006 | 780.05 | 1.3385 | 0.3255
308.15 K, x2 = 0.6969 | 780.38 | 1.3349 | 0.3531
308.15 K, x2 = 0.802 | 780.24 | 1.3309 | 0.3857
308.15 K, x2 = 0.8965 | 779.53 | 1.3269 | 0.4278
313.15 K, x2 = 0 | 766.95 | 1.349 | 0.2689
313.15 K, x2 = 0.1036 | 768.83 | 1.3469 | 0.2647
313.15 K, x2 = 0.2043 | 770.26 | 1.3457 | 0.2657
313.15 K, x2 = 0.302 | 771.49 | 1.3435 | 0.2704
313.15 K, x2 = 0.4013 | 772.65 | 1.3415 | 0.2769
313.15 K, x2 = 0.5004 | 773.67 | 1.3392 | 0.2881
313.15 K, x2 = 0.6006 | 774.49 | 1.3362 | 0.3057
313.15 K, x2 = 0.6969 | 775.01 | 1.3329 | 0.3316
313.15 K, x2 = 0.802 | 775.12 | 1.3289 | 0.3619
313.15 K, x2 = 0.8965 | 774.65 | 1.3253 | 0.3989
318.15 K, x2 = 0 | 761.26 | 1.3449 | 0.2511
318.15 K, x2 = 0.1036 | 763.15 | 1.3432 | 0.2478
318.15 K, x2 = 0.2043 | 764.64 | 1.3414 | 0.2494
318.15 K, x2 = 0.302 | 765.92 | 1.3397 | 0.2526
318.15 K, x2 = 0.4013 | 767.11 | 1.3381 | 0.2601
318.15 K, x2 = 0.5004 | 768.17 | 1.3361 | 0.2692
318.15 K, x2 = 0.6006 | 769.04 | 1.3334 | 0.2903
318.15 K, x2 = 0.6969 | 769.62 | 1.3303 | 0.3096
318.15 K, x2 = 0.802 | 769.88 | 1.3262 | 0.3377
318.15 K, x2 = 0.8965 | 769.53 | 1.3221 | 0.375
